Test results taken from patent US20180370927A1, “MICROBIOCIDAL OXADIAZOLE DERIVATIVES” (SYNGENTA PARTICIPATIONS AG, priority 2015, published 2018).

Assays:
[1] = test system: Phakopsora pachyrhizi; test: Phakopsora pachyrhizi / soybean / leaf disc preventative (Asian soybean rust); type: in vivo; details: foliar, 200 ppm in the applied formulation, soybean leaf disks, assessed 12 to 14 days after application, read-out: disease control compared to untreated control leaf disks
Procedure, shortened: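 Soybean leaf discs on water agar were sprayed with formulated compound diluted in water, then inoculated one day later with spore suspension on the lower leaf surface. Held 24-36 h dark at 20° C., 75% RH, then 12 h light/day; percent disease control versus untreated scored 12 to 14 days after application.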

[2] = test system: Puccinia recondita f. Sp. Tritici; test: Puccinia recondita f. sp. tritici / wheat / leaf disc preventative (brown rust); type: in vivo; details: foliar, 200 ppm in the applied formulation, wheat leaf segments, preventative, assessed 7 to 9 days after application, read-out: disease control compared to untreated control leaf disks
Procedure, shortened: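 Wheat cv. Kanzler leaf segments on agar sprayed with formulated compound in water, inoculated with rust spores 1 day later. Incubated at 19° C, 75% rh, 12 h light/12 h dark; percent disease control versus untreated scored 7 to 9 days after application; tested at 200 ppm.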

[3] = test system: Glomerella lacenarium (Colletotrichum lacenarium); test: Glomerella lacenarium (Colletotrichum lacenarium) liquid culture / cucumber / preventative (anthracnose); type: cell-based; details: 20 ppm in the applied formulation, liquid culture in PDB, 24° C., 3 to 4 days after application, read-out: disease control (inhibition of growth, photometric) compared to untreated control
Procedure, shortened: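 At 20 ppm in the applied formulation, compounds were mixed with fungal spores in potato dextrose broth and held at 24° C. After 3–4 days, photometric growth measurement gave percent antifungal activity relative to untreated control.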

[4] = test system: Puccinia recondita f. Sp. Tritici; test: Puccinia recondita f. sp. tritici / wheat / leaf disc curative (brown rust); type: in vivo; details: foliar, 200 ppm in the applied formulation, wheat leaf segments, curative (applied 1 day after inoculation), assessed 6 to 8 days after application, read-out: disease control compared to untreated control leaf disks
Procedure, shortened: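 Curative treatment: formulated compound in water was applied 1 day post-inoculation to spore-inoculated wheat cv. Kanzler segments held on agar. Segments stayed at 19° C and 75% relative humidity (12 h photoperiod after application), and disease control relative to untreated checks was assessed 6 to 8 days later.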

COCCN(Cc1ccc(-c2noc(C(F)(F)F)n2)cc1)C(=O)C(C)=O [Compound 1.10, N-(2-methoxyethyl)-2-oxo-N-[[4-[5-(trifluoromethyl)-1,2,4-oxadiazol-3-yl]phenyl]methyl]propanamide]
≥ 80%: pest or weed control at 200 ppm [1] | pest or weed control at 200 ppm [2] | inhibition at 20 ppm [3] | pest or weed control at 200 ppm [4]

CC(C)C(=O)C(=O)N(Cc1ccc(-c2noc(C(F)(F)F)n2)cc1)C1CC1 [Compound 1.97, N-cyclopropyl-3-methyl-2-oxo-N-[[4-[5-(trifluoromethyl)-1,2,4-oxadiazol-3-yl]phenyl]methyl]butanamide]
≥ 80%: pest or weed control at 200 ppm [1] | pest or weed control at 200 ppm [2] | inhibition at 20 ppm [3] | pest or weed control at 200 ppm [4]

CN(C)C(=O)C(=O)NCc1c(F)cc(-c2noc(C(F)(F)F)n2)cc1F [Compound 4.98, N-[[2,6-difluoro-4-[5-(trifluoromethyl)-1,2,4-oxadiazol-3-yl]phenyl]methyl]-N′,N′-dimethyl-oxamide]
≥ 80%: pest or weed control at 200 ppm [1] | pest or weed control at 200 ppm [2] | inhibition at 20 ppm [3] | pest or weed control at 200 ppm [4]

CCC(=O)C(=O)N(Cc1ccc(-c2noc(C(F)(F)F)n2)cc1)C1CC1 [Compound 1.100, N-cyclopropyl-2-oxo-N-[[4-[5-(trifluoromethyl)-1,2,4-oxadiazol-3-yl]phenyl]methyl]butanamide]
≥ 80%: pest or weed control at 200 ppm [1] | pest or weed control at 200 ppm [2] | inhibition at 20 ppm [3] | pest or weed control at 200 ppm [4]

CCC(C)N(Cc1ccc(-c2noc(C(F)(F)F)n2)cc1)C(=O)C(C)=O (stereo not drawn) [Compound 1.12, 2-oxo-N-sec-butyl-N-[[4-[5-(trifluoromethyl)-1,2,4-oxadiazol-3-yl]phenyl]methyl]propanamide]
≥ 80%: pest or weed control at 200 ppm [1] | pest or weed control at 200 ppm [2] | inhibition at 20 ppm [3] | pest or weed control at 200 ppm [4]

CC(C)(C)C(=O)C(=O)NCc1ccc(-c2noc(C(F)(F)F)n2)cc1F [Compound 1.40, N-[[2-fluoro-4-[5-(trifluoromethyl)-1,2,4-oxadiazol-3-yl]phenyl]methyl]-3,3-dimethyl-2-oxo-butanamide]
≥ 80%: pest or weed control at 200 ppm [1] | pest or weed control at 200 ppm [2] | inhibition at 20 ppm [3] | pest or weed control at 200 ppm [4]

CC(C)(C)C(=O)C(=O)NCc1ccc(-c2noc(C(F)(F)F)n2)c(F)c1F [Compound 1.49, N-[[2,3-difluoro-4-[5-(trifluoromethyl)-1,2,4-oxadiazol-3-yl]phenyl]methyl]-3,3-dimethyl-2-oxo-butanamide]
≥ 80%: pest or weed control at 200 ppm [1] | pest or weed control at 200 ppm [2] | inhibition at 20 ppm [3] | pest or weed control at 200 ppm [4]

CC(C)(C)C(=O)C(=O)NCc1ccc(-c2noc(C(F)(F)F)n2)cc1 [Compound 1.52, 3,3-dimethyl-2-oxo-N-[[4-[5-(trifluoromethyl)-1,2,4-oxadiazol-3-yl]phenyl]methyl]butanamide]
≥ 80%: pest or weed control at 200 ppm [1] | pest or weed control at 200 ppm [2] | inhibition at 20 ppm [3] | pest or weed control at 200 ppm [4]

CCCC(=O)C(=O)N(C)Cc1ccc(-c2noc(C(F)(F)F)n2)cc1 [Compound 1.21, N-methyl-2-oxo-N-[[4-[5-(trifluoromethyl)-1,2,4-oxadiazol-3-yl]phenyl]methyl]pentanamide]
≥ 80%: pest or weed control at 200 ppm [1] | pest or weed control at 200 ppm [2] | inhibition at 20 ppm [3] | pest or weed control at 200 ppm [4]
